Tests used:
ΔF508-CFTR [1] = biological target: T1, ΔF508-CFTR (Homo sapiens, UniProt P13569, DEL508-508); assay: Corrector assay, YFP fluorescence plate reader iodide influx in ΔF508-CFTR expressing FRT cells; format: cell-based; conditions: for Corrector Vmax / EC50 / Corrector EC50: 18-24 h with compound at 37° C., forskolin 20 μM + genistein 50 μM; for corrector and potentiator activities, in words: concentration-dependence in corrector and potentiator I− influx assays (FIG. 2, FIG. 7); for corrector activity, comparison in words: propylene tether, methoxy position on arylamide
T1 construct: expressed in transfected cells; host or cells: Fischer rat thyroid (FRT) epithelial cells, stably transfected
T1 sequence (P13569 with tags, fused parts or gaps DEL508-508): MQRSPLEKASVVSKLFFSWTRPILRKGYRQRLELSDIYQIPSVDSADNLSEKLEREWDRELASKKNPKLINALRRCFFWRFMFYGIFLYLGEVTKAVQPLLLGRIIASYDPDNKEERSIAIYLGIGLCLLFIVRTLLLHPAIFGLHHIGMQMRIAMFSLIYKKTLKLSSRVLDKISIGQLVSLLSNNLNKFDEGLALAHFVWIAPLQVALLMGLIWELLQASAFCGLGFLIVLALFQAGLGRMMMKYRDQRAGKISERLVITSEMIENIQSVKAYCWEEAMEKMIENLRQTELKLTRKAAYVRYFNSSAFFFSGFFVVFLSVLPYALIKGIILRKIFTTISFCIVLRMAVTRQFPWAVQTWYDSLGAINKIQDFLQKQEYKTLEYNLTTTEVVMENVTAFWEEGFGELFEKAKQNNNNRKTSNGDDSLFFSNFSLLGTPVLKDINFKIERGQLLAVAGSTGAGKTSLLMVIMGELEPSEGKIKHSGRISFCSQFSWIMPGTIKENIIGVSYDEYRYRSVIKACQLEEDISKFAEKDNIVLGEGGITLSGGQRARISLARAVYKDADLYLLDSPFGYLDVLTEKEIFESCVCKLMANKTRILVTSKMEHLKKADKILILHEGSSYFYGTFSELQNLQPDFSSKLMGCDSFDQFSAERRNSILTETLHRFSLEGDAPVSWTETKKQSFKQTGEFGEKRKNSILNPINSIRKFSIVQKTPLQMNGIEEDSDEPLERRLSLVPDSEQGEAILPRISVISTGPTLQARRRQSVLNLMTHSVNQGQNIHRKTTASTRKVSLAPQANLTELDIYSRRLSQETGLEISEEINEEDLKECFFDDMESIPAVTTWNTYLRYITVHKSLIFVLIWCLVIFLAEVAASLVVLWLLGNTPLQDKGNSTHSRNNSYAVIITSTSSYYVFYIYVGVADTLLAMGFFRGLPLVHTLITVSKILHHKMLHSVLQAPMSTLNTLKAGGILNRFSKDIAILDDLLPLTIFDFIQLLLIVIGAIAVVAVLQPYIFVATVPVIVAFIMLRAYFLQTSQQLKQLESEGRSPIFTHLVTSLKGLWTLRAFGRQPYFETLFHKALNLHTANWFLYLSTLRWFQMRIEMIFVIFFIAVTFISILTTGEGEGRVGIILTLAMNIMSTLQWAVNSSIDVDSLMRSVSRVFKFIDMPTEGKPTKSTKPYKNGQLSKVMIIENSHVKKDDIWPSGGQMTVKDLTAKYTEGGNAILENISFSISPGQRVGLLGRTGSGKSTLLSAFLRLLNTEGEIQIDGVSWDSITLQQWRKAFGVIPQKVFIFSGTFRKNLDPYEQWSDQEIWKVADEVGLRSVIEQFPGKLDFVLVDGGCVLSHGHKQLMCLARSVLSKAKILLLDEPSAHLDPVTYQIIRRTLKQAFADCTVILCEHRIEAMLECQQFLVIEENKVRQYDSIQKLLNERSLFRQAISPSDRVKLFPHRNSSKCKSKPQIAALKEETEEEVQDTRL
Method: (§1) Screening procedures. Screening of compounds for activity was carried out using a Beckman Coulter platform equipped with FLUOstar fluorescence plate readers (Optima; BMG Labtech) with dual syringe pumps and 500±10 nm excitation and 535±15 nm emission filters (Chroma Corp.). For the corrector assay, FRT cells were grown at 37° C./5% CO2 for 18-24 h and then incubated for 18-24 h with 100 μL of medium containing test compounds (25 μM final concentration). At the time of the assay, cells were washed with PBS and then incubated for 10 min with PBS containing forskolin (20 μM) and genistein (50 μM). For the potentiator assay, FRT cells were grown at 37° C./5% CO2 for 18-24 h and then for 18-24 h at 27° C. At the time of the assay, cells were washed with PBS and then incubated for 10 min with PBS (50 μL) containing forskolin (20 μM) and test compound (0-25 μM final concentration). For both the corrector and potentiator assays, each well was assayed individually for I^− influx by recording fluorescence continuously (200 ms per point) for 2 s (baseline) and then for 12 s after rapid addition of 165 μL PBS in which 137 mM Cl^− was replaced by I^−. Initial I^− influx rate was computed by fitting the final 11.5 seconds of the data to an exponential for extrapolation of initial slope, which was normalized for background-subtracted initial fluorescence. All compound plates contained negative controls and positive controls (10 μM Corr-4a for corrector assay; 50 μM genistein for potentiator assay).
(§2) Screening of about 110,000 small molecules was done to identify new ΔF508-CFTR corrector scaffolds having high correction efficiency and/or having independent potentiator activity. […] FRT cells co-expressing human ΔF508-CFTR and a halide-sensing YFP were incubated with test compounds at 37° C. (corrector assay) or 27° C. (potentiator assay). ΔF508-CFTR function was assayed in a plate reader from YFP fluorescence quenching in response to iodide addition in the presence of forskolin (20 μM) plus genistein (50 μM) for corrector assay, or forskolin (20 μM) alone for potentiator assay. As shown in FIG. 1A (left), primary screening for corrector activity was done using a cell-based fluorescence assay of iodide influx in which FRT cells expressing ΔF508-CFTR and an iodide-sensitive YFP were incubated with test compounds at 10 μM for 18-24 h prior to assay. Iodide influx was measured by addition of extracellular iodide in the presence of a potentiator (50 μM genistein) and cAMP agonist (20 μM forskolin). Compound efficacy and potency (from concentration-dependence studies) in the corrector assay were compared to reference bithiazole Corr-4a (10 μM) and to low-temperature rescued cells. Active compounds were counter-screened for potentiator activity (FIG. 1A, right) in which iodide influx was measured in the ΔF508-CFTR expressing FRT cells after low-temperature rescue and in the presence of 20 μM forskolin.
(§3) Screening procedures. Plate reader activity assay was carried out using a Beckman Coulter platform containing a robotic arm, CO2 incubator containing microplate carousel, plate-washer, liquid handling work station, bar code reader, de-lidding station, plate sealer, and FLUOstar fluorescence plate readers (Optima; BMG LABTECH Gmbh), equipped with dual syringe pumps and 500±10 nm excitation and 535±15 nm emission filters (Chroma Corp.). For the corrector assay, ΔF508-CFTR-expressing FRT cells were grown at 37° C. (90% humidity; 5% CO2) for 18-24 h and then incubated for 18-24 h with 100 μL of medium containing test compounds (0-25 μM final concentration). At the time of the assay, cells were washed with PBS and then incubated for 10 min with PBS containing forskolin (20 μM) and genistein (50 μM). For the potentiator assay, FRT cells were grown at 37° C. (90% humidity; 5% CO2) for 18-24 h and then for 18-24 h at 27° C. […]

ΔF508-CFTR [2] = biological target: T1, ΔF508-CFTR; assay: Potentiator assay, YFP fluorescence plate reader iodide influx in low-temperature rescued ΔF508-CFTR expressing FRT cells; format: cell-based
Method: as §1, §2, §3

[3] = Table VIII, FRT cells, I− influx
[4] = Table VIII, FRT cells 18-24 h at 27° C., forskolin 20 μM + test compound, I− influx
[5] = Table IX, additional experiments
[6] = Table IX, additional experiments, 18-24 h at 27° C., forskolin 20 μM + test compound

SMILES: Cc1cc(C)c2cc(C#N)c(NCCNC(=O)c3cccs3)nc2c1 [drawing 139]
- Corrector Vmax (ΔF508-CFTR [1]; [3]): 228 µM/s
- EC50 (ΔF508-CFTR [1]; [3]): 14 µM
- EC50 (ΔF508-CFTR [2]; [4]): 14 µM
- Potentiator Vmax (ΔF508-CFTR [2]; [4]): 289 µM/s

SMILES: COc1ccc(C(=O)NCCNc2nc3c(C)cccc3cc2C#N)cc1OC [Compound 01]
- corrector and potentiator activities, in words (ΔF508-CFTR [1]): corrector and potentiator activities comparable to those of Compound 22

SMILES: Cc1cc(C)c2cc(C#N)c(NCCNC(=O)c3ccccn3)nc2c1 [drawing 167]
- Corrector EC50 (ΔF508-CFTR [1]; [5]): inactive
- Corrector Vmax (ΔF508-CFTR [1]; [5]): inactive
- EC50 (ΔF508-CFTR [2]; [6]): 1.2 ± 0.4 µM
- Potentiator Vmax (ΔF508-CFTR [2]; [6]): 80 µM/s

SMILES: Cc1cc(C)c2cc(C#N)c(N3CCN(C(=O)c4cccnc4)CC3)nc2c1 [drawing 156]
- Potentiator EC50 (ΔF508-CFTR [2]; [4]): inactive
- Potentiator Vmax (ΔF508-CFTR [2]; [4]): inactive

SMILES: COc1ccc(C(=O)NCCNc2nc3c(C)cccc3cc2C#N)cc1OC [drawing 137]
- Corrector Vmax (ΔF508-CFTR [1]; [3]): 223 µM/s
- EC50 (ΔF508-CFTR [1]; [3]): 3.8 µM
- EC50 (ΔF508-CFTR [2]; [4]): 15 µM
- Potentiator Vmax (ΔF508-CFTR [2]; [4]): 250 µM/s

SMILES: COc1ccc(C(=O)NCCNc2nc3cc(C)cc(C)c3cc2C#N)cc1 [drawing 166]
- Corrector Vmax (ΔF508-CFTR [1]; [5]): 172 µM/s
- Potentiator Vmax (ΔF508-CFTR [2]; [6]): 181 µM/s

SMILES: COc1ccc(C(=O)NCCCNc2nc3cc(C)cc(C)c3cc2C#N)cc1 [drawing 178]
- Corrector Vmax (ΔF508-CFTR [1]; [5]): 112 µM/s
- EC50 (ΔF508-CFTR [1]; [5]): 4.3 ± 0.2 µM
- Potentiator Vmax (ΔF508-CFTR [2]; [6]): 231 µM/s

SMILES: Cc1ccc2cc(C#N)c(N3CCCN(C(=O)c4cccs4)CC3)nc2c1
- Corrector EC50 (ΔF508-CFTR [1]; [3]): inactive
- Corrector Vmax (ΔF508-CFTR [1]; [3]): inactive
- EC50 (ΔF508-CFTR [2]; [4]): 13 µM
- Potentiator Vmax (ΔF508-CFTR [2]; [4]): 261 µM/s

SMILES: CCOc1ccccc1NC(=S)NCCNc1nc2c(C)cccc2cc1C#N [Compound 14]
- corrector and potentiator activities, in words (ΔF508-CFTR [1]): potentiator-only activity

SMILES: COc1ccc(S(=O)(=O)N2CCN(c3nc4ccc(C)cc4cc3C#N)CC2)cc1 [Compound 05]
- corrector and potentiator activities, in words (ΔF508-CFTR [1]): dual activities

SMILES: COc1cccc(C(=O)NCCCNc2nc3cc(C)cc(C)c3cc2C#N)c1 [Compound AW8]
- corrector activity, comparison in words (ΔF508-CFTR [1]): greater corrector activity than Compound AW7

SMILES: Cc1cc(C)c2cc(C#N)c(N3CCN(C(=O)c4ccccn4)CC3)nc2c1 [drawing 173]
- Corrector EC50 (ΔF508-CFTR [1]; [5]): inactive
- Corrector Vmax (ΔF508-CFTR [1]; [5]): inactive
- EC50 (ΔF508-CFTR [2]; [6]): 7.4 ± 0.3 µM
- Potentiator Vmax (ΔF508-CFTR [2]; [6]): 102 µM/s

SMILES: Cc1cc(C)c2cc(C#N)c(N3CCN(C(=O)c4ccccn4)CC3)nc2c1 [drawing 155]
- Corrector Vmax (ΔF508-CFTR [1]; [3]): inactive
- Potentiator Vmax (ΔF508-CFTR [2]; [4]): 102 µM/s

SMILES: Cc1cc(C)c2cc(C#N)c(NCCCNC(=O)c3ccccn3)nc2c1 [drawing 161]
- EC50 (ΔF508-CFTR [2]; [4]): 6.1 µM
- Potentiator Vmax (ΔF508-CFTR [2]; [4]): 233 µM/s

SMILES: COc1ccc(C(=O)N2CCN(c3nc4cc(C)cc(C)c4cc3C#N)CC2)cc1 [drawing 154]
- Corrector Vmax (ΔF508-CFTR [1]; [3]): inactive
- EC50 (ΔF508-CFTR [2]; [4]): 1.3 µM
- Potentiator Vmax (ΔF508-CFTR [2]; [4]): 281 µM/s

SMILES: COc1ccc(C(=O)NCCNc2nc3cc(C)cc(C)c3cc2C#N)nc1 [Compound 110]
- corrector and potentiator activities, in words (ΔF508-CFTR [1]): both corrector and potentiator activities

SMILES: COc1ccc(C(=O)NCCCNc2nc3cc(C)cc(C)c3cc2C#N)cc1 [Compound AW9]
- corrector activity, comparison in words (ΔF508-CFTR [1]): greater corrector activity than Compound AW7

SMILES: Cc1cc(C)c2cc(C#N)c(NCCCNC(=O)c3ccncc3)nc2c1 [drawing 163]
- Corrector EC50 (ΔF508-CFTR [1]; [3]): inactive
- Corrector Vmax (ΔF508-CFTR [1]; [3]): inactive

SMILES: COc1ccc(C(=O)NCCNc2nc3ccc(C)cc3cc2C#N)cc1OC [Compound 02]
- corrector and potentiator activities, in words (ΔF508-CFTR [1]): corrector and potentiator activities comparable to those of Compound 22

SMILES: COc1cccc(C(=O)N2CCN(c3nc4cc(C)cc(C)c4cc3C#N)CC2)c1 [Compound AW2]
- potentiator activity, in words (ΔF508-CFTR [2]; piperazine ring in place of diamino ethylene tether): significant potentiator activity

SMILES: Cc1cc(C)c2cc(C#N)c(NCCNC(=O)c3cccs3)nc2c1 [Compound 03]
- corrector and potentiator activities, in words (ΔF508-CFTR [1]): dual activities

SMILES: Cc1cc(C)c2cc(C#N)c(NCCNC(=O)c3cccnc3)nc2c1 [Compound CP5]
- corrector and potentiator activities, in words (ΔF508-CFTR [1]): both corrector and potentiator activities

SMILES: COc1ccc(C(=O)NCCNc2nc3cc(C)cc(C)c3cc2C#N)cc1OC [Compound 103]
- corrector and potentiator activities, in words (ΔF508-CFTR [1]): both corrector and potentiator activities
